# Measurements from patent publication US4579841A, “Dipeptide derivatives having opiate activity” (University Patents, Inc., priority 1981, dated 1986).
# Where a SMILES comes first, the peptide text is derived from it. [ ]: non-standard residue; d: D form.
# System: electrically stimulated guinea pig ileum
# Assay: In vitro assay on the electrically stimulated guinea pig ileum (Chipkin, et al.)
# Assay type: cell-based
# Details: potency relative to methionine-enkephalin=100
# Description: Peptides were assayed for biological activity in vitro on the electrically stimulated guinea pig ileum, using the procedure described by Chipkin, et al. (Life Sciences 28:1517-1522, 1981). All potencies of the peptides in this assay are reported relative to the potency of methionine-enkephalin=100. Analgesic activity of the peptides in vivo was assayed by the tail-flick method following intracerebroventricular injection, as described in the Chipkin, et al., reference. The standard for this assay was Tyr-D-Ala-Gly-Phe-Met-amide.
# *(Assay on the stimulated guinea pig ileum according to Chipkin, et al.;
# standard peptide is methionineenkephalin.)
smiles,measurement,value
NC(=O)[C@@H](Cc1ccccc1)NC(=O)[C@@H](N)Cc1ccc(O)cc1 [Tyr--D-Phe--NH2] (H-Tyr-[dF]-NH2),Relate In Vitro Potency,0.1
